Patent US20230190695A1, “TRIBUTYRIN SUPPLEMENTATION PROVIDES BENEFITS FOR MENTAL WELLNESS, IMMUNE HEALTH AND FAT METABOLISM” (PHARMAVITE LLC, priority 2021, published 2023)

Legend:
[1] = test system: combined microbiota of 10 healthy adult human donors; assay: Colonic simulation, in vitro gut simulation model: microbial composition
Protocol: The impact of two doses of tributyrin on gut microbiota composition and microbial metabolites was studied in an in vitro gut simulation model using combined microbiota of 10 healthy adult human donors (5 males, 5 females, 30-60 years old, BMI<30). The retention times and pH ranges were optimized in order to obtain results that are representative for a full GIT simulation. A stabilization period was followed by a two-week control period and three weeks of treatment, where 59% of 300 mg/day or 59% of 1000 mg/day was administered daily (based on release profile described above). Samples were collected at the end of control period and treatment period. Both doses were performed in biological triplicate to account for biological variability. […] Higher ratio of Bacteroidetes:Firmicutes is associated with lean phenotype. Tributyrin treatment increases this ratio as illustrated in FIG. 4 and therefore may provide metabolic health benefit. • At species level, importantly, Akkermansia muciniphila and Faecalibacterium prausnitzii were enriched in tributyrin-treated compartments. • Akkermansia muciniphila is an acetate and propionate-producing, mucin-degrading bacteria. Its presence in the gut is associated with health benefits. An inverse relationship- between colonization of Akkermansia muciniphila and inflammatory conditions or obesity have been shown. […] Both Parabacteroides distasonis and Parabacteroides goldsteinii were stimulated in the proximal colon and distal colon for both low and high doses of tributyrin.

[2] = test system: C57BL/6J mice; assay: Body weight and body composition by NMR; assay type: in vivo; conditions: for final fat as a percentage of baseline: all mice, vs combined unstressed untreated control
Protocol: (§1) A study was conducted to evaluate tributyrin on stress and mood-related behaviors in female and male C57BL/6J mice. The animals were given immediate ad libitum access to water and standard rodent chow and were acclimated to the facility for 7 days. On study day -3, fat and muscle content was measured using nuclear magnetic resonance spectroscopy (NMR: MiniSpec NMR, Bruker LF50 Body Composition Analyzer). On study day 0, the animals were weighed, blood and fecal samples (1-2 pellets/animal) were collected, and the animals were randomized into their specific treatment group. Daily oral gavage of 4 distinct groups commenced as follows: • Treatment 1: daily PBS vehicle + no acute stress before behavioral measures • Treatment 2: daily PBS vehicle + acute stress before behavioral measures • Treatment 3: daily low-dose tributyrin (60 mg/kg/d) + acute stress before behavioral measures • Treatment 4: daily high-dose tributyrin (200 mg/kg/d) + acute stress before behavioral measures
(§2) After 7 weeks of intervention, blood and fecal samples were collected on study day 49, and fecal collection was repeated on study days 50 and 52. On study day 52, animals assigned to the acute stress groups were acutely restrained for two hours while unstressed animals were housed singly for 140 minutes in fresh cages. […] All animals were then tested in the forced swim test (FST). A retro-orbital blood sample was collected within 15 to 30 minutes after the FST, and fecal pellets were collected (for corticosterone measurements). On study day 53, the animals were weighed, and body composition by NMR was performed a second time. The study was terminated on study day 56, blood was collected and necropsies were performed. Serum cytokine levels were evaluated in terminal serum.

[3] = test system: combined microbiota of 10 healthy adult human donors; assay: Colonic simulation, in vitro gut simulation model: butyrate and microbial metabolites; design: Indole-3-acetic acid / Indole-3-aldehyde / Indole-3-ethanol / Tryptophan / 5-Hydroxyindoleacetic acid / Tryptamine: unit not given here; conditions: for 1-Acetyl-3-indolecarboxyaldehyde / 5-Hydroxyindoleacetic acid / Indole / Indole-3-acetic acid / Indole-3-acrylic acid / Melatonin / Serotonin / Skatole / Tryptamine / Tryptophan / Indole-3-ethanol / Indole-3-aldehyde / Indole-3-propionic acid: Treatment; for average increase of butyrate as compared to the control period / average increase of butyrate: highest dose (59% of 1000 mg/day); for average increase of butyrate: vs control period
Protocol: The impact of two doses of tributyrin on gut microbiota composition and microbial metabolites was studied in an in vitro gut simulation model using combined microbiota of 10 healthy adult human donors (5 males, 5 females, 30-60 years old, BMI<30). The retention times and pH ranges were optimized in order to obtain results that are representative for a full GIT simulation. A stabilization period was followed by a two-week control period and three weeks of treatment, where 59% of 300 mg/day or 59% of 1000 mg/day was administered daily (based on release profile described above). Samples were collected at the end of control period and treatment period. Both doses were performed in biological triplicate to account for biological variability.

[4] = test system: C57BL/6J mice; assay: Cytokine concentrations in terminal serum; assay type: in vivo; conditions: male mice
Protocol: as §1, §2

[5] = test system: C57BL/6J mice; assay: Fecal metabolite analysis (GC, UHPLC-HRMS); assay type: in vivo
Protocol: as §1, §2
Gut microbiota metabolizes ingested food and supplements in the colon thereby producing various metabolites, which have an impact on several host biological processes. These metabolites generated in the colon can be measured in the feces. A panel of metabolites were measured in feces collected from experimental mice 8 weeks post-treatment. Fecal SCFA were measured by Gas Chromatography (GC) and tryptophan metabolites were measured using Ultra High Performance Liquid Chromatography High Resolution Mass Spectrometry (UHPLC-HRMS). Comparisons were made between stressed untreated mice and tributyrin treated stressed mice.

[6] = test system: Caco-2/THP1 (colonic cells/macrophages) co-culture; assay: Caco-2/THP1 co-culture immunomodulation model; assay type: cell-based
Excerpt: An in vitro Caco-2/THP1 (colonic cells/macrophages) co-culture model was used to assess the effect of microbial metabolites on proinflammatory or ant-inflammatory cytokines and chemokines which serve as markers for immunomodulation.

[7] = test system: C57BL/6J mice; assay: Fecal corticosterone after forced swim test; assay type: in vivo; conditions: male mice; 200 mg/kg/d; vs stressed vehicle control
Protocol: as §1
After 7 weeks of intervention, blood and fecal samples were collected on study day 49, and fecal collection was repeated on study days 50 and 52. On study day 52, animals assigned to the acute stress groups were acutely restrained for two hours while unstressed animals were housed singly for 140 minutes in fresh cages. […] Serum cytokine levels were evaluated in terminal serum. […]

[8] = test system: C57BL/6J mice; assay: Forced swim test (FST) after acute restraint stress; assay type: in vivo; conditions: for time immobile in the FST: combined female + male, study day 52; for immobility in the FST: vs sex-matched untreated stressed control
Protocol: as §1, §2
Forced Swim Test (FST) is a test centered on a rodent’s response to unescapable stress. Results of this test have been interpreted as a measure of susceptibility to negative mood. It is commonly used to measure the effectiveness of antidepressants. Forced swim tests were performed on study day 52 for each cohort of mice.

[9] = proximal colon and distal colon, both low and high doses
[10] = Distal Colon, High Dose (59% of 1000 mg/day)
[11] = Distal Colon, Low Dose (59% of 300 mg/day)
[12] = Proximal Colon, High Dose (59% of 1000 mg/day)
[13] = Proximal Colon, Low Dose (59% of 300 mg/day)
[14] = 60 mg/kg/d, vs stressed vehicle control
[15] = low dose (60 mg/kg/d), 8 weeks post-treatment
[16] = DC-Low (distal colon, low dose)
[17] = PC-High (proximal colon, high dose)
[18] = PC-Low (proximal colon, low dose)

CCCC(=O)OCC(COC(=O)CCC)OC(=O)CCC [tributyrin]
Faecalibacterium prausnitzii abundance ([1]; PC and DC, low and high dose): enriched
Akkermansia muciniphila abundance ([1]; PC and DC, low- and high-dose): enriched
gut microbial diversity (Simpson Diversity Index) ([1]; both low and high dose): increase
ratio of Bacteroidetes:Firmicutes ([1]; distal colon, low and high dose vs control (FIG. 4)): increases
Parabacteroides merdae ATCC 43184 abundance ([1]; proximal colon): specific stimulation
Tannerellaceae levels ([1]; proximal colon): increased
Parabacteroides distasonis abundance [1, 9]: stimulated
Parabacteroides goldsteinii abundance [1, 9]: stimulated
final fat as a percentage of baseline ([2]; 60 mg/kg/d): statistically reduced
final fat as a percentage of baseline ([2]; 200 mg/kg/d): statistically reduced
Lean:Fat ratio ([2]; treated mice vs untreated control): significantly increased
1-Acetyl-3-indolecarboxyaldehyde [3, 10]: < LOD
5-Hydroxyindoleacetic acid [3, 10]: 0.001
Indole [3, 10]: < LOD
Indole-3-acetic acid [3, 10]: 0.644
Indole-3-acrylic acid [3, 10]: < LOD
Melatonin [3, 10]: < LOD
Serotonin [3, 10]: < LOD
Skatole [3, 10]: < LOD
Tryptamine [3, 10]: 0.175
Tryptophan [3, 10]: 0.095
1-Acetyl-3-indolecarboxyaldehyde [3, 11]: < LOD
5-Hydroxyindoleacetic acid [3, 11]: 0.001
Indole [3, 11]: < LOD
Indole-3-acrylic acid [3, 11]: < LOD
Indole-3-ethanol [3, 11]: 0.284
Melatonin [3, 11]: < LOD
Serotonin [3, 11]: < LOD
Skatole [3, 11]: < LOD
Tryptamine [3, 11]: 0.205
Tryptophan [3, 11]: 0.116
1-Acetyl-3-indolecarboxyaldehyde [3, 12]: < LOD
5-Hydroxyindoleacetic acid [3, 12]: 0.008
Indole [3, 12]: < LOD
Indole-3-acetic acid [3, 12]: 0.916
Indole-3-acrylic acid [3, 12]: < LOD
Indole-3-aldehyde [3, 12]: 0.058
Indole-3-propionic acid [3, 12]: 0.01
Melatonin [3, 12]: < LOD
Serotonin [3, 12]: < LOD
Skatole [3, 12]: < LOD
Tryptamine [3, 12]: 0.105
1-Acetyl-3-indolecarboxyaldehyde [3, 13]: < LOD
5-Hydroxyindoleacetic acid [3, 13]: 0.01
Indole [3, 13]: < LOD
Indole-3-acrylic acid [3, 13]: < LOD
Indole-3-aldehyde [3, 13]: 0.06
Indole-3-ethanol [3, 13]: 0.266
Indole-3-propionic acid [3, 13]: 0.008
Melatonin [3, 13]: < LOD
Serotonin [3, 13]: < LOD
Skatole [3, 13]: < LOD
Tryptamine [3, 13]: 0.118
butyrate levels ([3]; both proximal colon and distal colon, on initiation of treatment): significantly enhanced
average increase of butyrate as compared to the control period ([3]; distal colon): 78.8%
average increase of butyrate ([3]; distal colon): 7.7 mM
average increase of butyrate as compared to the control period ([3]; proximal colon): 91.9%
average increase of butyrate ([3]; proximal colon): 7.4 mM
IL-2 in terminal serum ([4]; 60 mg/kg/d, vs stressed mice): reduced significantly
IL-4 in terminal serum ([4]; 60 mg/kg/d, vs stressed mice): reduced significantly
IFNγ in terminal serum [4, 14]: significantly reduced
MIP-1a in terminal serum [4, 14]: significantly reduced
IL-4 in terminal serum ([4]; 200 mg/kg/d, vs stressed mice): reduced significantly
MIP-1a in terminal serum ([4]; 200 mg/kg/d, vs stressed vehicle control): significantly reduced
tryptophan in feces ([5]; high dose (200 mg/kg/d), 8 weeks post-treatment): 142.8 ± 53.4 ng/mg
Indole-3-acetic acid in feces [5, 15]: 1.56 ± 1.17 ng/mg
tryptophan in feces [5, 15]: 154.9 ± 98.7 ng/mg
fecal SCFA levels ([5]; treated mice vs untreated stressed controls): No differences
IL6, treatment suspensions normalized to blank control suspensions [6, 16]: 1.13
IL10, treatment suspensions normalized to blank control suspensions [6, 16]: 1.03
IL-1B, treatment suspensions normalized to blank control suspensions [6, 16]: 1.07
MCP1, treatment suspensions normalized to blank control suspensions [6, 16]: 1.05
IL6, treatment suspensions normalized to blank control suspensions [6, 17]: 1.31
IL8, treatment suspensions normalized to blank control suspensions [6, 17]: 1.03
IL-1B, treatment suspensions normalized to blank control suspensions [6, 17]: 1.08
MCP1, treatment suspensions normalized to blank control suspensions [6, 17]: 0.97
IL6, treatment suspensions normalized to blank control suspensions [6, 18]: 1.01
IL8, treatment suspensions normalized to blank control suspensions [6, 18]: 1.3
IL10, treatment suspensions normalized to blank control suspensions [6, 18]: 1.06
IL-1B, treatment suspensions normalized to blank control suspensions [6, 18]: 1.08
TNFa, treatment suspensions normalized to blank control suspensions [6, 18]: 1.06
fecal corticosterone levels after FST [7]: statistical reduction
time immobile in the FST ([8]; 60 mg/kg/d oral gavage, vs stressed untreated control): reductions in time immobile in the FST were statistically significant
immobility in the FST ([8]; 60 mg/kg, females): reduced immobility
time immobile in the FST ([8]; 200 mg/kg/d oral gavage, vs stressed untreated control and vs unstressed control): reductions in time immobile in the FST were statistically significant
immobility in the FST ([8]; 200 mg/kg, males): reduced immobility
